Source: publication PMC3173295, “Biochemical characterization of trans-sialidase TS1 variants from Trypanosoma congolense” (BMC Biochemistry, 2011)

Assays:
Type in all cases: biochemical, Trypanosoma congolense
T. congolense TS1b [1] = tested on: T1, T. congolense TS1b; test: HPAEC-PAD quantification of […]'Sia-Gal-MU, Michaelis-Menten fit; settings: acceptor substrate; donor 50 nmol 3'SL in 50 μL (Figure 7 legend; text b29 says fetuin, 600 μM bound Sia); 37°C, 30 min; read-out: Acceptor substrates / Gal-MU / KM
T1 construct: residues 17-732 without signal peptide and GPI anchor region; C-terminal 3C site, SNAP and Strep tags; secreted from CHO Lec1 cells; 120 kDa with tags

T. congolense TS1 e-1 [2] = tested on: T2, T. congolense TS1 e-1; test: as above; settings: acceptor substrate; donor 50 nmol 3'SL in 50 μL (Figure 7 legend; text b29 says fetuin, 600 μM bound Sia); 37°C, 30 min; read-out: Acceptor substrates / Gal-MU / KM
T2 construct: residues 17-732 without signal peptide and GPI anchor region; C-terminal 3C site, SNAP and Strep tags; secreted from CHO Lec1 cells; 120 kDa with tags

T. congolense TS1b [3] = tested on: T1, T. congolense TS1b; test: HPAEC-PAD quantification of […]'-sialyllactose, Michaelis-Menten fit; settings: acceptor substrate; donor fetuin (600 μM bound Sia); pH 7.4-7.5, 37°C, 30 min; read-out: Acceptor substrates / Lactose / KM
T. congolense TS1 e-1 [4] = tested on: T2, T. congolense TS1 e-1; test: as above; settings: acceptor substrate; donor fetuin (600 μM bound Sia); pH 7.4-7.5, 37°C, 30 min; read-out: Acceptor substrates / Lactose / KM

Cc1cc(=O)oc2cc(O[C@@H]3O[C@H](CO)[C@H](O)[C@H](O)[C@H]3O)ccc12 [Gal-MU, 4-methylumbelliferyl ß-D-galactoside]
Km (T. congolense TS1b [1]): 57 ± 14 µM | Km (T. congolense TS1 e-1 [2]): 74 ± 17 µM

OC[C@H]1O[C@@H](O[C@H]2[C@H](O)[C@@H](O)C(O)O[C@@H]2CO)[C@H](O)[C@@H](O)[C@H]1O (stereo partly shown) [lactose]
Km (T. congolense TS1b [3]): 1680 ± 101 µM | Km (T. congolense TS1 e-1 [4]): 727 ± 48 µM
